# From patent US20240382557A1, “INHIBITION OF TUMOR NECROSIS FACTOR, PRO-INFLAMMATORY CYTOKINES AND OTHER INFLAMMATORY RESPONSE MEDIATORS” (Allegro Pharmaceuticals, LLC, priority 2021, published 2024)
# Where a SMILES comes first, the peptide text is derived from it. [ ]: non-standard residue; d: D form. Cya = N[C@@H](CS(=O)(=O)O)C(=O)O
# Tests used:
# [1] = Intravenous infusion to dogs, toxicity; format: in vivo; details: 1.0 mg/kg, 5.0 mg/kg and 8.0 mg/kg
# Procedure: The peptides disclosed herein may be administered at any effective dosages, as a single dose or multiple doses, and by any suitable routes of administration. For some systemic treatments, administration by injection or intravenous infusion may be preferable. […] Accordingly, in at least some applications, risuteganib may be administered, for example, by intravenous infusion at a dosage ranging from 1 mg/kg to 8 mg/kg. Other dosage levels and other routes of administration may also be suitable and effective.
# [2] = test system: Human umbilical vein endothelial cells (HUVEC); experiment: RNA-seq gene expression in HUVEC treated with hypoxia and cytokines; format: cell-based
# Text: Purpose: A chronic pro-inflammatory condition is associated with many ocular diseases, including DED, AMD, and DR. During this process, tissue resident and peripheral immune cells are activated and contribute to formation of a cytotoxic inflammatory state that causes tissue damage and vision loss. In this study, RNA-seq was used to unbiasedly identify the genes regulated by risuteganib treatment in human endothelial cells exposed to hypoxia and cytokines. Analysis of the specific subset of genes regulated by risuteganib enables identification of biological processes and pathways modulated by the oligopeptide.
# Methods: Human umbilical vein endothelial cells (HUVEC) were used between passage 3 to 5. All cells were grown at 3% O2 to stimulate endothelial cells into a more angiogenic state. Cells were divided into four treatment groups: control, cytokines for 48 hours, 500 uM risuteganib for 24 hours, and cytokines for 48 hours with 500 uM risuteganib for 24 hours. Cytokine treatment contains both human TNF-a and IL-1b at 1 ng/ml at final concentration. After exposure, cells were collected and their total RNA isolated for RNA-seq. The generated reads were then aligned to human reference genome/transcriptome and gene expression quantified for differential expression analysis and fold change calculation. The list of regulated genes was then used to identify biological processes and pathways that are regulated after risuteganib exposure with cytokine exposure.
# [3] = 3% O2, 500 uM risuteganib for 24 hours
structure (smiles),measurement,setting,value
"C[C@@H](O)[C@H](NC(=O)[C@H](CS(=O)(=O)O)NC(=O)CNC(=O)[C@H](CCCNC(=N)N)NC(=O)CN)C(=O)N1CCC[C@H]1C(=O)O [Risuteganib, Glycyl-L-arginylglycyl-3-sulfo-L-alanyl-L-threonyl-L-proline] (H-GRG[Cya]TP-OH)",toxicity or side effects,[1],without significant toxicity or side effects
same,CCL2 Mean Expression Rate (Normalized as Fraction Control),[2]; [3],0.8696
same,CCL20 Mean Expression Rate (Normalized as Fraction Control),[2]; [3],0.6328
same,CFH Mean Expression Rate (Normalized as Fraction Control),[2]; [3],0.9706
same,CXCL5 Mean Expression Rate (Normalized as Fraction Control),[2]; [3],1.166
same,CXCL6 Mean Expression Rate (Normalized as Fraction Control),[2]; [3],0.9699
same,IL6 Mean Expression Rate (Normalized as Fraction Control),[2]; [3],0.9982
same,IL7R Mean Expression Rate (Normalized as Fraction Control),[2]; [3],1.036
same,SELE Mean Expression Rate (Normalized as Fraction Control),[2]; [3],0.7022
same,TNFAIP3 Mean Expression Rate (Normalized as Fraction Control),[2]; [3],0.946
same,TNFAIP6 Mean Expression Rate (Normalized as Fraction Control),[2]; [3],0
same,TNFRSF11B Mean Expression Rate (Normalized as Fraction Control),[2]; [3],0.8931
same,genes regulated by both risuteganib and cytokines that are regulated in opposite directions,[2]; 342/403 genes,85%
same,reversing the transcriptome changes associated with cytokine treatment (Pearson's r),[2]; cytokine-activated condition,−0.267
same,number of pathways down-regulated by risuteganib (pathway analysis),"[2]; incl. cytokine-cytokine receptor interaction, TNF signaling, IL-17 signaling",10
